Tests used:
women with breast cancer = conditions: results of 15 randomized controlled trials; cited from earlier work
postmenopausal women = assay: Weaning from hormone therapy with mirtazapine as non-hormonal therapy for vasomotor symptoms; format: in vivo; conditions: 15 mg by mouth at bedtime for 6 months from the day hormone therapy is discontinued; postmenopausal women 60-65 year old; in comparison to women on hormone therapy
Procedure: Mirtazapine is used as non-hormonal therapy for vasomotor symptoms. Treatment dose is 15 mg. The length of weaning is 6 months. In this example subjects for treatment have the following characteristics: Postmenopausal women of 60-65 year old who have been on hormone therapy for the treatment of vasomotor symptoms associated with menopause for at least 2 years. They have either a need or a desire to discontinue hormone therapy. They are informed of the risks of mirtazapine. They are informed that successful use of mirtazapine for the relief of vasomotor symptoms associated with menopause has been reported in the medical literature. This method should not be used for women who have a condition or take medications that preclude the use of mirtazapine. A person treated according to this example is instructed to take 15 mg mirtazapine by mouth on the day that they are to discontinue hormone therapy. Mirtazapine is prescribed to be taken at bedtime and after all their evening rituals are done so that they can lay down right after taking mirtazapine. They are instructed to continue taking 15 mg of mirtazapine at bedtime for 6 months after which mirtazapine administration is discontinued. […] Method to measure hot flash frequency: by self rating or according to the method described by Freedman et al J. Clin Endocrin & Metabolism, Vol 80, pp 2354-2358.

Compound	measures of hot flashes (women with breast cancer)	withdrawal vasomotor symptoms (postmenopausal women)
COc1ccc(C(CN(C)C)C2(O)CCCCC2)cc1 (stereo not shown) [venlafaxine]	significantly improved	
CN1CCN2c3ncccc3Cc3ccccc3C2C1 (racemic) [Mirtazapine]		absent or strongly reduced
Clc1cccc(Cl)c1N=C1NCCN1 [clonidine]	significantly improved	
CC(=O)O[C@]1(C(C)=O)CC[C@H]2[C@@H]3C=C(C)C4=CC(=O)CC[C@]4(C)[C@H]3CC[C@@]21C [megestrol acetate]	significantly improved	
